Target: T1, Flt3 kinase (Homo sapiens, UniProt P36888)
T1 construct: purchased Carna Biosciences Inc. (Kobe) 08-154
T1 sequence (P36888 27-993): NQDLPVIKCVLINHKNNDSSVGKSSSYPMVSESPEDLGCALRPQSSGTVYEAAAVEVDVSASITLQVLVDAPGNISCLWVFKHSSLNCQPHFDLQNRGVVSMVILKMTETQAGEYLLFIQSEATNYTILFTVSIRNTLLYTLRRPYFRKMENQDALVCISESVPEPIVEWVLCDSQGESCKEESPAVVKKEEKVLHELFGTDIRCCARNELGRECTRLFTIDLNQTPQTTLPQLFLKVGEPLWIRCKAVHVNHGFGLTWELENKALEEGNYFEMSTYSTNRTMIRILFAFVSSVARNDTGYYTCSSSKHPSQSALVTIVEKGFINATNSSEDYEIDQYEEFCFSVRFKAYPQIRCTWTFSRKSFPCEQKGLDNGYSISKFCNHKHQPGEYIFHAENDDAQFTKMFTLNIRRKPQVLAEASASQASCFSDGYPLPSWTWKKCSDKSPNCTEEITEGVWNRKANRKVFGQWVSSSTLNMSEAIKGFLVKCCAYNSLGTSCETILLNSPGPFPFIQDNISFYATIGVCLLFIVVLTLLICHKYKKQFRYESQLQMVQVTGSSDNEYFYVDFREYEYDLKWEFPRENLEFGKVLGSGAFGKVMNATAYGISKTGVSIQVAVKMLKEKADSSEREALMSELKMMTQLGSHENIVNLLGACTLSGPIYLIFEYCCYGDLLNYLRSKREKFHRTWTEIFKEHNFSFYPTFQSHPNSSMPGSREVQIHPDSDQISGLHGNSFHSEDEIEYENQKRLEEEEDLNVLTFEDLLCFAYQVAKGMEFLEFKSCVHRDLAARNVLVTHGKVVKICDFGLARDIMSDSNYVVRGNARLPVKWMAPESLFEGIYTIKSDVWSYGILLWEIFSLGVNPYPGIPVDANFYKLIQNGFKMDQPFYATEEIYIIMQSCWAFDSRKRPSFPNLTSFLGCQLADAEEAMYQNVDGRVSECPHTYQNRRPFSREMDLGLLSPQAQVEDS
Assay: Kinase activity, mobility shift assay (MSA), Flt3
Format: biochemical
Conditions: at 0.01 μM; read-out: inhibitory activity against Flt3 kinase
Method: (§1) A test compound was dissolved in DMSO to obtain a 10 mM test compound solution, which was stored in a dark place at −20° C. until measurement. When bioactivity (kinase activity) is measured, a test compound solution is diluted with DMSO so that the concentration becomes 100 times higher than […], and then diluted 25 times (DMSO concentration is 4%) with an assay buffer described hereinafter.
(§2) Products manufactured by Carna Biosciences Inc. (Kobe) used as protein kinases (recombinant human kinases) in the test are as follows:
(§3) SYK (product number: 08-176), JAK3 (product number: 08-046), FLT3 (product number: 08-154), PDGFRα (PDGFRA) (product number: 08-157), TRKA (NTRK1) (product number: 08-186), KDR (product number: 08-191), CDK2/cycA (product number: 04-103), and AurA (AURKA) (product number: 05-101).
(§4) Kinase activity was measured by a mobility shift assay (MSA) method using QuickScout Screening Assist™ MSA (commercially available kit, manufactured by Carna Biosciences Inc.)
(§5) 5 μl of a test compound solution (the concentration is 4 times of the final concentration) dissolved or suspended in an assay buffer [20 mM HEPES, 0.01% Triton™ X-100, 1 mM dithiothreitol, pH 7.5] or 5 μl of a solvent (4% DMSO-assay buffer) was charged in a 384 well plate made of polypropylene (product number 781280, manufactured by Greiner Bio-One Co., Ltd.). Then, 5 μl of ATP/substrate/metal solution of QuickScout Screening Assist MSA was added. Furthermore, 10 μl of a kinase solution diluted with assay buffer was added and the reaction was initiated. However, only assay buffer (10 μl) was added to blank. The concentration of kinase and reaction conditions were controlled in accordance with the protocol of QuickScout Screening Assist MSA. Then, the reaction was terminated by adding 60 μl of termination buffer of QuickScout Screening Assist MSA and the amount of a substrate (S) and a phosphorylated substrate (P) in the reaction solution were determined in accordance with the protocol of QuickScout Screening Assist MSA using LabChip3000 (manufactured by Caliper Life Sciences Co., MA, USA), and also inhibition of the test compound at a concentration of 0.01, 0.1 and 1 μM was measured, respectively. The amounts of S and P were expressed by the height of each separated peak. Inhibition (%) of the test compound was calculated in accordance with the following equation:
(§6) Inhibition (%)=(1−(C−A)/(B−A))×100
(§7) where A denotes blank, B denotes a solvent and C denotes P/(P+S) of a well of the compound.

SMILES | inhibition at 0.01 µM [%]
Clc1cccc2cnc(Nc3ccc4cn[nH]c4c3)nc12 [Example 32, 8-chloro-N-(1H-indazol-6-yl)quinazoline-2-amine] | ≥ 50
Cc1cccc2cnc(Nc3ccc4c(c3)NC(=O)CO4)nc12 [Example 8, 6-(8-methylquinazolin-2-ylamino)-2H-benzo[b][1,4]oxazin-3(4H)-one] | ≥ 50
CC(=O)Nc1cccc(Nc2ncc3cccc(C)c3n2)c1 [Example 11, N-(3-(8-methylquinazolin-2-ylamino)phenyl)acetamide] | ≥ 50

Same assay, conditions: at 0.1 μM; read-out: inhibitory activity against Flt3 kinase

SMILES | inhibition at 0.1 µM [%]
Cc1cccc2cnc(Nc3ccc4c(c3)OCO4)nc12 [Example 6, N-(benzo[d][1,3]dioxol-5-yl)-8-methylquinazoline-2-amine] | ≥ 50
Cc1cccc2cnc(Nc3ccc4c(c3)OCCO4)nc12 [Example 7, N-(2,3-dihydrobenzo[b][1,4]dioxin-6-yl)-8-methylquinazoline-2-amine] | ≥ 50

Target: T2, Syk kinase (Homo sapiens, UniProt P43405)
T2 construct: purchased Carna Biosciences Inc. (Kobe) 08-176
Assay: Kinase activity, mobility shift assay (MSA), Syk
Format: biochemical
Conditions: read-out: inhibitory activity against Syk kinase
Method: as §1, §2, §3, §4, §5, §6, §7

SMILES | inhibition at 0.1 µM [%]
Cc1c(NCCO)ccc2cnc(Nc3ccc4cn[nH]c4c3)nc12 [Example 73, 2-[2-(1H-indazol-6-ylamino)-8-methylquinazolin-7-ylamino]ethanol] | ≥ 50
Cc1n[nH]c2cc(Nc3ncc4ccc(N5CCC(CO)CC5)c(C)c4n3)ccc12 [Example 94, {1-[2-(3-methyl-1H-indazol-6-ylamino)-8-methylquinazolin-7-yl]piperidin-4-yl}methanol] | ≥ 50
Cc1ccc(Nc2ncc3cccc(C)c3n2)cc1O [Example 29, 5-(8-methylquinazolin-2-ylamino)-2-methylphenol] | ≥ 50
Cc1c(O)ccc2cnc(Nc3ccc4cn[nH]c4c3)nc12 [Example 48, 7-hydroxy-N-(1H-indazol-6-yl)-8-methylquinazoline-2-amine] | ≥ 50
Cc1c(F)ccc2cnc(Nc3cc(N)c4nc[nH]c4c3)nc12 [Example 123, 7-fluoro-8-methyl-N-(4-amino-1H-benzo[d]imidazol-6-yl)quinazoline-2-amine] | ≥ 50
COc1ccc2cnc(Nc3ccc4c(C)n[nH]c4c3)nc2c1C [Example 96, N-(3-methyl-1H-indazol-6-yl)-7-methoxy-8-methylquinazoline-2-amine] | ≥ 50
Cc1c(N2CCC(CO)CC2)ccc2cnc(Nc3ccc4cn[nH]c4c3)nc12 [Example 84, {1-[2-(1H-indazol-6-ylamino)-8-methylquinazolin-7-yl]piperidin-4-yl}methanol] | ≥ 50

Further lines, results first:

inhibition at 0.1 µM [%] | SMILES
≥ 50 | Cc1c(NCCO)ccc2cnc(Nc3cc(N)c4cn[nH]c4c3)nc12 [Example 124]
≥ 50 | Cc1cccc2cnc(Nc3ccc4[nH]nnc4c3)nc12 [Example 2, N-(1H-benzo[d][1,2,3]triazol-5-yl)-8-methylquinazoline-2-amine]
≥ 50 | Cc1cccc2cnc(Nc3ccc4cn[nH]c4c3)nc12 [Example 1, N-(1H-indazol-6-yl)-8-methylquinazoline-2-amine]
≥ 50 | Cc1c(F)ccc2cnc(Nc3cc(N)c4cn[nH]c4c3)nc12 [Example 99, 7-fluoro-N-(4-amino-1H-indazol-6-yl)-8-methylquinazoline-2-amine]
≥ 50 | Cc1c(N2CCC(CO)CC2)ccc2cnc(Nc3cc(N)c4cn[nH]c4c3)nc12 [Example 101, {1-[2-(4-amino-1H-indazol-6-ylamino)-8-methylquinazolin-7-yl]piperidin-4-yl}methanol]
≥ 50 | Cc1cccc2cnc(Nc3cc(NC(=O)NCCO)c4cn[nH]c4c3)nc12 [Example 98, 1-(2-hydroxyethyl)-3-[6-(8-methylquinazolin-2-ylamino)-1H-indazol-4-yl]urea]
≥ 50 | Cc1cccc2cnc(Nc3cc(N)c4cn[nH]c4c3)nc12 [Example 52, 8-methyl-N-(4-amino-1H-indazol-6-yl)quinazoline-2-amine]
≥ 50 | Cc1c(N)ccc2cnc(Nc3ccc4cn[nH]c4c3)nc12 [Example 74, 7-amino-N-(1H-indazol-6-yl)-8-methylquinazoline-2-amine]
≥ 50 | Cc1n[nH]c2cc(Nc3ncc4cccc(C)c4n3)ccc12 [Example 34, 8-methyl-N-(3-methyl-1H-indazol-6-yl)-quinazoline-2-amine]
≥ 50 | COc1ccc2cnc(Nc3cc(N)c4cn[nH]c4c3)nc2c1C [Example 102, N-(4-amino-1H-indazol-6-yl)-7-methoxy-8-methylquinazoline-2-amine]
≥ 50 | Cc1cc(Nc2ncc3cccc(C)c3n2)cc2[nH]ncc12 [Example 37, 8-methyl-N-(4-methyl-1H-indazol-6-yl)-quinazoline-2-amine]
≥ 50 | Cc1cc(Nc2ncc3ccc(NCCO)c(C)c3n2)cc2[nH]ncc12 [Example 109, 2-[2-(4-methyl-1H-indazol-6-ylamino)-8-methylquinazolin-7-ylamino]ethanol]
≥ 50 | COc1ccc2cnc(Nc3cc(C)c4cn[nH]c4c3)nc2c1C [Example 97, N-(4-methyl-1H-indazol-6-yl)-7-methoxy-8-methylquinazoline-2-amine]

Tested on: Rat basophilic cells RBL-2H3
Assay: Action against IgE-induced degranulation (β-hexosaminidase release)
Format: cell-based
Conditions: RBL-2H3 cells, anti-DNP-IgE / DNP-BSA, read-out: inhibitory activity against IgE-induced degranulation
Method: An inhibitory action against SYK was evaluated by an inhibitory action against degranulation of basophils induced by IgE. Rat basophilic cells RBL-2H3 were incubated with an anti-DNP-IgE antibody (1 μg/mL, Zymed) overnight. After washing cells twice with HBSS, an antigen DNP-BSA (1 μg/mL, LSL) was added, followed by incubation for 30 minutes. The supernatant was taken and an activity of β-hexosaminidase in the solution isolated by degranulation was measured using p-nitrophenyl-N-β-D-glucosaminide as a substrate. Using an absorbance meter (Spectra MAX Pro, Molecular Devices), each absorbance at 405 nm and 570 nm of the solution was measured and an increase in the amount was taken as an enzyme activity. 10 minutes before the addition of an antigen, a test material and a solvent (0.1% DMSO) were added to cells. Inhibition rate (%) against degranulation was calculated by the following equation.
Inhibition rate (%)=(1−(A−C)/(B−C))×100
where A denotes an increase in absorbance of a test material group, B denotes an increase in absorbance of a solvent group, and C denotes an increase in absorbance of a solvent group which is not stimulated by an antigen.

SMILES | inhibition at 0.05 µM [%]
CCOC(=O)NCc1cc(Nc2ncc3cccc(C)c3n2)cc2[nH]ncc12 [Example 80, Ethyl [6-(8-methylquinazolin-2-ylamino)-1H-indazol-4-yl]methylcarbamate] | ≥ 50
CCNC(=O)n1ncc2c(N)cc(Nc3ncc4cccc(C)c4n3)cc21 [Example 79, 4-amino-N-ethyl-6-(8-methylquinazolin-2-ylamino)-1H-indazole-1-carboxamide] | ≥ 50
Cc1c(N2CCN(C)CC2)ccc2cnc(Nc3ccc4cn[nH]c4c3)nc12 [Example 63, N-(1H-indazol-6-yl)-8-methyl-7-(4-methylpiperazin-1-yl)quinazoline-2-amine] | ≥ 50

Reference: patent US20100311965A1, “2-AMINOQUINAZOLINE DERIVATIVE” (CARNA BIOSCIENCES INC., priority 2007, published 2010)
